Reference: patent US20250186421A1, “METHODS OF TREATING INFLAMMATORY AND/OR ALLERGIC DISORDERS WITH NORKETOTIFEN” (Bridge Pharma, Inc., priority 2025, published 2025)
Read-outs that look alike come from different tables or passages of the source. Marks after values point to notes of the source that are not given here.

Experiments:
[1] = system: atopic dermatitis; details: 16 weeks, 224 subjects, cited from earlier work
[2] = Incidence of vomiting in dogs administered norketotifen as a function of Cmax and AUC; type: in vivo; details: FIGS. 1 and 2
[3] = Accumulation of norketotifen in skin after oral administration; type: in vivo; details: read-out: Terminal half-life (t1/2e)
Excerpt: As used herein, the term biophase refers to the site(s) where a drug expresses its therapeutic activity. […] Thus, norketotifen can advantageously be used to treat dermal inflammatory and/or allergic diseases.

[4] = Fed and fasted oral administration of norketotifen to dogs (food effect PK); type: in vivo; details: 4 mg/kg oral; for AUC(0-inf) / Cmax: dog, plasma, po, 4 mg/kg
Experimental: Norketotifen was administered to dogs with and without food. For fed animals, canned food (one can (374 g) of Lamb Ground Dinner with Chicken & Rice per dog was weighed then offered for a period of 30 min prior to dosing at 4 mg/kg. After dosing, dry food (25% protein) was offered. For fasted animals, dogs were fasted overnight and until 4 h post dose and then offered dry food. The results are given in Table 2.

[5] = system: atopic dermatitis; assay: Phase 2a study of oral norketotifen in atopic dermatitis; type: in vivo, human
Experimental: The efficacy and safety of norketotifen orally administered to human subjects over a 28 day period were determined in a Phase 2 study. Norketotifen efficacy was compared to the clinical data in the prescribing information for Eucrisa® by dermal application; and compared to the clinical data in the prescribing information (product monograph) for Dupixent® by subcutaneous administration. In the Phase 2a study, 8 subjects were administered Placebo and 16 subjects were administered norketotifen. Oral norketotifen was administered at 4 mg BID (twice per day) for 4 days, followed by 4 mg QD (once per day). The duration of the study was 4 weeks. The parameters determined were: IGA score, Investigator's Global Assessment scale. The scale is as follows: • 0=clear—No inflammatory signs of atopic dermatitis (no erythema, no induration/papulation, no lichenification, no oozing/crusting). Post-inflammatory hyperpigmentation and/or hypopigmentation may be present. • 1=almost clear—Barely perceptible erythema, barely perceptible induration/papulation, and/or minimal lichenification. No oozing or crusting. • 2=mild—Slight but definite erythema (pink), slight but definite induration/papulation, and/or slight but definite lichenification. No oozing or crusting. • 3=moderate—Clearly perceptible erythema (dull red), clearly perceptible induration/papulation, and/or clearly perceptible lichenification. Oozing and crusting may be present. • 4=severe—Marked erythema (deep or bright red), marked induration/papulation, and/or marked lichenification. Disease is widespread in extent. Oozing or crusting may be present. In the IGA assessment, a responder was identified as a subject with IGA 0 or 1 (clear or almost clear) after treatment. A partial responder was defined as having an IGA score>1, but less than the initial score recorded on Day 1. A non-responder is a subject in which the initial IGA score was identical to the IGA score at the end of treatment (i.e. no change in score numbers). […] In Table 4, the results for norketotifen were compared to the results from the Dupixent® prescribing information.

[6] = PK parameters in plasma and skin of dogs after 28 days of oral dosing; type: in vivo; details: for AUC(0-inf): N=5; for MRT / half-life: dog, po
Excerpt: However, for the treatment of the dermal and pulmonary disorders described herein for treatment efficacy, the dermal/pulmonary exposure are more important than systemic exposure, that is, efficacy depends on the skin/pulmonary AUC/Cmax, which are considered to be sites of action for these conditions. The pharmacokinetic parameters in skin and plasma after oral dosing of norketotifen to dogs (N=5) are shown below.

[7] = Phase 1 study, 8 mg/day for 7 days, plasma steady-state; type: in vivo, human; details: 8 mg/day for 7 days Phase 1 study
[8] = dog, in vivo
Experimental: In the Phase 2 study described herein, doses of 4 mg (maintenance) and 8 mg (loading) were used, with very good effects and with no toxicity. The margin of safety (MOS) was calculated by dividing animal: human doses in mg/kg, or dividing animal systemic exposure (AUC) at no adverse effect level (NOAEL) (a 28-day dog study), with human systemic exposure AUC (from human Phase 1 study), or by dividing animal: to human dose expressed in m2 (body surface area—BSA), or by calculating HED (human equivalent dose).

[9] = Distribution of norketotifen to the lungs after oral administration; type: in vivo; details: lung / plasma, read-out: Lung concentration relative to plasma concentration
Excerpt: Norketotifen, after oral administration, is rapidly absorbed and is also preferentially distributed to the lungs, where the concentration of RS-norketotifen can reach concentrations that may be 100 times higher than the plasma concentration.

[10] = Fast (fasted overnight until 4 h post dose)
[11] = oral 4 mg BID for 4 days, then 4 mg QD for 24 days, 4 weeks, 16 subjects

Dupilumab: recombinant human IgG4 monoclonal antibody binding IL-4Rα, inhibits IL-4 and IL-13 signaling; subcutaneous injection
IGA scores ≤1, percent responders ([1]; 300 mg Q2W subcutaneous): 37.9%
NRS ≥4 score improvement, percentage response for dupilumab group ([1]; pruritus NRS 0-10, 300 mg Q2W): 40.8%

O=C1Cc2ccccc2C(=C2CCNCC2)c2ccsc21 (racemic) [norketotifen]
Incidence of vomiting vs systemic Cmax and AUC [2]: incidence of vomiting increases as both systemic Cmax and AUC increase
half-life [3]: 144 to 168 h
% difference in AUC0-∞, fed vs fasted (reduction in fed animals) [4]: 26%
AUC(0-inf) [4, 10]: 522 ng·h/mL
Cmax [4, 10]: 93 ng/mL
AUC(0-inf) ([4]; Fed): 390 ng·h/mL
Cmax ([4]; Fed): 58 ng/mL
Safety/tolerability in the safety population ([5]; 28 days oral treatment, adverse event in only one patient, resolved completely): well-tolerated, with no reported instances of serious adverse events or treatment-related adverse events
Toxicity at Phase 2 doses ([5]; doses of 4 mg (maintenance) and 8 mg (loading)): no toxicity
Nausea or vomiting when dosed on a full stomach ([5]; human subjects, with food, up to a dose of 16 mg): no nausea or vomiting was noted
% reduction of affected BSA (Baseline to Day 29) ([5]; oral 4 mg BID for 4 days, then 4 mg QD for 24 days): −63.3%^
IGA scores >1, but less than the initial scores on Day 1 (partial responders) [5, 11]: 50%
Non responders at all [5, 11]: 6.1%
IGA scores ≤1, percent responders ([5]; oral 4 mg BID for 4 days, then 4 mg QD for 24 days, 4 weeks, 16 subjects, p = 0.0095 / 0.0031 vs Placebo (Fisher's exact test)): 43.89% ^b
Pruritus, score 0, percentage improvement for NK group ([5]; pruritus severity scale 0-3, 4 weeks, p = 0.016 vs Placebo): 62.5%^c
AUC(0-inf) ([6]; dog plasma, after 28 days of oral dosing): 4520 ng·h/mL
AUC(0-inf) ([6]; dog skin, after 28 days of oral dosing): 46100 ng·h/mL
MRT ([6]; plasma, dog plasma, after 28 days of oral dosing, read-out: MRT (mean residence time)): 17.5 h
half-life ([6]; plasma, dog plasma, after 28 days of oral dosing, read-out: t ½(e) (converted)): 38.3 h
MRT ([6]; skin, dog skin, Phase 2 = 14 day post dosing period, read-out: MRT (phase 2)): 159 h
half-life ([6]; skin, dog skin, Phase 2 = 14 day post dosing period, read-out: t ½(e) (phase 2) (converted)): 160 h
MRT ([6]; skin, dog skin, after 28 days of oral dosing, read-out: MRT (mean residence time)): 86.5 h
half-life ([6]; skin, dog skin, after 28 days of oral dosing, read-out: t ½(e) (converted)): 25.4 h
Time to plasma steady-state [7]: ≤ 4 days
Margin of safety (animal: human), Systemic exposure (AUC0-inf.) ([8]; 2 mg): 127-fold
Margin of safety (animal: human), Systemic exposure (AUC0-inf.) ([8]; 4 mg): 72-fold
Margin of safety (animal: human), Systemic exposure (AUC0-inf.) ([8]; 16 mg): 19-fold
Margin of safety (animal: human), Systemic exposure (AUC0-inf.) ([8]; 32 mg): 6-fold
Margin of safety (animal: human), Systemic exposure (AUC0-inf.) ([8]; 64 mg): 3-fold
Kp [9]: ~100
